ChEMBL document CHEMBL1138670, “Prospects for inhibitors of protein tyrosine phosphatase 1B as antidiabetic drugs” (J Med Chem, 2004)

Experiments:
[1] = target: T1, Tyrosine-protein phosphatase non-receptor type 1 (Homo sapiens, UniProt P18031); experiment: Inhibitory activity against Protein-tyrosine phosphatase 1B at pH 5.5
T1 sequence (P18031 whole entry): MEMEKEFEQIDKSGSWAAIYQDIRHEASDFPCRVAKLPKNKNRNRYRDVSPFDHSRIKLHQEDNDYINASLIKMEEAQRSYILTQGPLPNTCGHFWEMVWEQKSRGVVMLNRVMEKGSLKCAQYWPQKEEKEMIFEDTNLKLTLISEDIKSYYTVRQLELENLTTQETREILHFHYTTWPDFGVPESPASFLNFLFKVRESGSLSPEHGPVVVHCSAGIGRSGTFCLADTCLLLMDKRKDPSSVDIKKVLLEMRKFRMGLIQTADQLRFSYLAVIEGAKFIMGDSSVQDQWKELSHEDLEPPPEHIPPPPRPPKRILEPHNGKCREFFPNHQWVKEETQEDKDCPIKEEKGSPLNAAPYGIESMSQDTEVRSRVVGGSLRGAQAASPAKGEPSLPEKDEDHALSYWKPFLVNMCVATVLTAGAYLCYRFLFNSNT

[2] = target: T2, Tyrosine-protein phosphatase non-receptor type 1 (Homo sapiens) (UniProt P18031); experiment: Inhibitory concentration for Protein-tyrosine phosphatase 1B
T2 sequence (whole entry): T1 sequence (P18031 whole entry)

[3] = Bioavailability; format: ADME, organism-based; details: eutheria, in vivo; read-out: Fez
[4] = target: T1, Tyrosine-protein phosphatase non-receptor type 1; experiment: Inhibitory activity against Protein-tyrosine phosphatase 1B

## O=C(O)C(=O)Nc1sc2c(c1C(=O)O)CCN[C@H]2CNC(=O)c1cc2cc(F)ccc2[nH]1
[1]
  Ki: 18 nM

## CC(C)c1ccc(N2N=C3CSCC=C3C(C#N)=C2N)cc1
[2]
  Concentration: 5.6 µM

## O=C(c1ccccc1)C(Cc1ccc(C(F)(F)P(=O)(O)O)cc1)c1ccccc1 (centres undefined)
[3]
  bioavailability: 13%

## CCc1cc(CC(NC(C)=O)C(=O)NCCCCC(=O)N[C@@H](CCSC)C(=O)O)ccc1N(C(=O)C(=O)O)c1ccccc1C(=O)O (some centres undefined)
[4]
  Ki: 77 nM
